According to US6080738A, “Heterocyclic amide compounds and medicinal uses thereof” (Yoshitomi Pharmaceuticals Industries, Ltd., priority 1996, dated 2000):
pKi: −log10 of the molar value.

Molecular target: T1, human heart chymase (Homo sapiens, UniProt P23946)
T1 sequence (P23946 22-247): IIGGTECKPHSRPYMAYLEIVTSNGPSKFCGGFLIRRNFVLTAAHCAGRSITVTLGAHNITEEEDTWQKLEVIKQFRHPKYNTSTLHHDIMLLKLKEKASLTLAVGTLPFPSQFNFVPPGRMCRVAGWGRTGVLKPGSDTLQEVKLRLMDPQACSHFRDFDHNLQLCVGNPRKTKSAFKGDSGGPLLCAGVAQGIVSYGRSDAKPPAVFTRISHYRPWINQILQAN
Experiment: Inhibitory activity on amidase activity of human heart chymase
Assay type: biochemical
Details: 5 nM chymase; substrate succinyl-alanyl-alanyl-prolyl-phenylalanine-p-nitroanilide 2.5 mM; Tris-HCl (100 mM)-KCl (2 M), pH 7.5
Method: The effectiveness of the inhibitory activity of compound (I) and compound (XXVI) of the present invention was evaluated based on the inhibitory activity on amidase activity of human heart chymase, which was determined as in the following.
The inhibitory activity was quantitatively determined through variation in fractional residual activity of the enzyme caused by the inventive compound in defined serial concentration (<×1, <×10, <×100-fold equivalents) relative to 5 nM chymase in the presence of synthetic substrate, succinyl-alanyl-alanyl-prolyl-phenylalanine-p-nitroanilide (final concentration 2.5 mM). The inhibitory effect was analyzed by least square regression of Easson-Stedman plot (Proc. Roy. Soc. B. 1936, 121, p. 141) utilizing bimolecular equilibrium reaction linearization formula. The inhibitory activity was evaluated by the apparent inhibitory constant (Kiapp) obtained by this analysis and inhibitory constant (Ki) calculated from final substrate concentration in the reaction mixture and Km values separately determined. With regard to the quantlitative determination of initial rate of the enzyme reaction, the amount of p-nitroaniline produced by hydrolysis of the substrate was spectrophotometrically detected in terms of an increased absorbance which was obtained by subtracting absorbance at 650 nm wavelength from the absorbance at 405 nm. The chymase inhibitory activity of the compound of the present invention was calculated as ratio of residual activity in the presence of inhibitor relative to enzyme activity in the absence of inhibitor, and incorporation of the determination values was completed at a level less than initial rate guarantee absorbance at a concentration of the substrate used for the enzyme, after which analysis was performed.
The reaction mixture consisted of a buffer (pH 7.5, 140 μl) of Tris-HCl (100 mM) - KCl (2 M), the inventive compound dissolved in 20 μl of 10% dimethyl sulfoxide (DMSO), substrate dissolved in 20 μl of DMSO, and 20 μl of chymase, thus amounting to 200 μl in total.
Starting with the absorbance immediately after addition of the enzyme, increases in absorbance were recorded as a progressive curve taken precisely at equal time intervals.
From the above data, the difference between absorbances at completion of the reaction and immediately after addition was used to quantitatively determine the residual activity of the sample added with the inhibitor relative to a control wherein the inhibitor was not added. Alternatively, reaction rates of the control and the sample added with the inhibitor were calculated for certain time period (≥20 min) with successive shift (every 10 to 30 minutes) of the period, and the residual activity ratio was quantitatively determined and analyzed from the respective reaction rates averaged through the entire reaction time.

Compound | pKi
COC(=O)c1ccc2oc(C(=O)C(Cc3ccccc3)NC(=O)Cn3c(-c4ccc(F)cc4)ncc(NC(=O)OCc4ccccc4)c3=O)nc2c1 (centres unmarked) [Example 3, 2-[5-benzyloxycarbonylamino-2-(4-fluorophenyl)-6-oxo-1,6-dihydro-1-pyrimidinyl]-N-[1-[[5-(methoxycarbonyl)benzoxazol-2-yl]carbonyl]-2-phenylethyl]acetamide] | 5.89
Nc1cnc(-c2ccc(F)cc2)n(CC(=O)NC(Cc2ccccc2)C(=O)c2nc3cc(C(=O)O)ccc3o2)c1=O (centres unmarked) [Example 5, 2-[5-amino-2-(4-fluorophenyl)-6-oxo-1,6-dihydro-1-pyrimidinyl]-N-[1-[(5-carboxylbenzoxazol-2-yl)carbonyl]-2-phenylethyl]acetamide] | 7.12
COC(=O)c1ccc2nc(C(=O)C(Cc3ccccc3)NC(=O)Cn3c(-c4ccc(F)cc4)ncc(N)c3=O)oc2c1 (centres unmarked) [Example 7, 2-[5-amino-2-(4-fluorophenyl)-6-oxo-1,6-dihydro-1-pyrimidinyl]-N-[1-[[6-(methoxycarbonyl)benzoxazol-2-yl]carbonyl]-2-phenylethyl]acetamide] | 7.25
O=CC(Cc1ccccc1)NC(=O)Cn1c(-c2ccc(F)cc2)ncc(NC(=O)OCc2ccccc2)c1=O (centres unmarked) [Example 9, 2-[5-benzyloxycarbonylamino-2-(4-fluorophenyl)-6-oxo-1,6-dihydro-1-pyrimidinyl]-N-(1-formyl-2-phenylethyl)acetamide] | 5.74
Nc1ccc2oc(C(=O)C(Cc3ccccc3)NC(=O)Cn3c(-c4ccc(F)cc4)ncc(N)c3=O)nc2c1 (centres unmarked) [Example 15, 2-[5-amino-2-(4-fluorophenyl)-6-oxo-1,6-dihydro-1-pyrimidinyl]-N-[1-[(5-aminobenzoxazol-2-yl)carbonyl]-2-phenylethyl]acetamide] | 6.74
Nc1cnc(-c2ccc(F)cc2)n(CC(=O)NC(Cc2ccccc2)C(=O)c2nc3cc(NS(=O)(=O)C(F)(F)F)ccc3o2)c1=O (centres unmarked) [Example 17, 2-[5-amino-2-(4-fluorophenyl)-6-oxo-1,6-dihydro-1-pyrimidinyl]-N-[1-[[5-(trifluoromethanesulfonylamino)benzoxazol-2-yl]carbonyl]-2-phenylethyl]acetamide] | 6.89
O=C(Cn1c(-c2ccc(F)cc2)ncc(NC(=O)OCc2ccccc2)c1=O)NC(Cc1ccccc1)C(=O)c1nccs1 (centres unmarked) [Example 21, 2-[5-benzyloxycarbonylamino-2-(4-fluorophenyl)-6-oxo-1,6-dihydro-1-pyrimidinyl]-N-[2-phenyl-1-[(2-thiazolyl)carbonyl]ethyl]acetamide] | 6.95
O=C(Cn1c(-c2ccc(F)cc2)ncc(NC(=O)OCc2ccccc2)c1=O)NC(Cc1ccccc1)C(=O)C1=NCCO1 (centres unmarked) [Example 23, 2-[5-benzyloxycarbonylamino-2-(4-fluorophenyl)-6-oxo-1,6-dihydro-1-pyrimidinyl]-N-[1-[(2-oxazolinyl)carbonyl]-2-phenylethyl]acetamide] | 7.32
Nc1cnc(-c2ccc(F)cc2)n(CC(=O)NC(Cc2ccccc2)C(=O)c2nc3cc(F)ccc3o2)c1=O (centres unmarked) [Example 26, 2-[5-amino-2-(4-fluorophenyl)-6-oxo-1,6-dihydro-1-pyrimidinyl]-N-[1-[(5-fluorobenzoxazol-2-yl)carbonyl]-2-phenylethyl]acetamide] | 7.03
CN(C)C(=O)c1ccc2oc(C(=O)C(Cc3ccccc3)NC(=O)Cn3c(-c4ccc(F)cc4)ncc(NC(=O)OCc4ccccc4)c3=O)nc2c1 (centres unmarked) [Example 31, 2-[5-benzyloxycarbonylamino-2-(4-fluorophenyl)-6-oxo-1,6-dihydro-1-pyrimidinyl]-N-[1-[[5-(dimethylaminocarbonyl)benzoxazol-2yl)carbonyl]-2-phenylethyl]acetamide] | 7.80
Nc1cnc(-c2ccc(F)cc2)n(CC(=O)NC(Cc2ccc(F)cc2)C(=O)c2nc3ccccc3o2)c1=O (centres unmarked) [Example 40, 2-[5-amino-2-(4-fluorophenyl)-6-oxo-1,6-dihydro-1-pyrimidinyl]-N-[1-[(benzoxazol-2-yl)carbonyl]-2-(4-fluorophenyl)ethyl]acetamide] | 6.00
CCOC(=O)c1ccc2oc(C(=O)C(Cc3ccccc3)NC(=O)Cn3c(-c4ccccc4)ncc(N)c3=O)nc2c1 (centres unmarked) [Example 44] | 8.70
O=C(Cn1c(-c2ccccc2)ncc(NC(=O)OCc2ccccc2)c1=O)NC(Cc1ccccc1)C(=O)c1nc2ncccc2o1 (centres unmarked) [Example 45, 2-(5-benzyloxycarbonylamino-6-oxo-2-phenyl-1,6-dihydro-1-pyrimidinyl)-N-[1-[(oxazolo[4,5-b]pyridin-2-yl)carbonyl]-2-phenylethyl]acetamide] | 7.62
Cc1cccc(-c2ncc(NC(=O)OCc3ccccc3)c(=O)n2CC(=O)NC(Cc2ccccc2)C(=O)c2nc3cc(C(N)=O)ccc3o2)c1 (centres unmarked) [Example 53, 2-[5-benzyloxycarbonylamino-6-oxo-2-(m-tolyl)-1,6-dihydro-1-pyrimidinyl]-N-[1-[(5-carbamoylbenzoxazol-2-yl)carbonyl]-2-phenylethyl]acetamide] | 7.18
CCNC(=O)c1ccc2oc(C(=O)C(Cc3ccccc3)NC(=O)Cn3c(-c4cccc(C)c4)ncc(NC(=O)OCc4ccccc4)c3=O)nc2c1 (centres unmarked) [Example 55, 2-[5-benzyloxycarbonylamino-6-oxo-2-(m-tolyl)-1,6-dihydro-1-pyrimidinyl]-N-[1-[[5-(ethylaminocarbonyl)benzoxazol-2-yl]carbonyl]-2-phenylethyl]acetamid] | 7.23
CCN(CC)C(=O)c1ccc2oc(C(=O)C(Cc3ccccc3)NC(=O)Cn3c(-c4cccc(C)c4)ncc(N)c3=O)nc2c1 (centres unmarked) [Example 58, 2-[5-amino-6-oxo-2-(m-tolyl)-1,6-dihydro-1-pyrimidinyl]-N-[1-[[5-(diethylaminocarbonyl)benzoxazol-2-yl]carbonyl]-2-phenylethyl]acetamide] | 7.92
CCOC(=O)c1ccc2oc(C(=O)C(Cc3ccccc3)NC(=O)Cn3c(-c4cccnc4)ncc(N)c3=O)nc2c1 (centres unmarked) [Example 64, 2-[5-amino-6-oxo-2-(3-pyridyl)-1,6-dihydro-1-pyrimidinyl]-N-[1-[[5-(ethoxycarbonyl)benzoxazol-2yl]carbonyl]-2-phenylethyl]acetamide] | 7.35
Nc1cnc(-c2cccnc2)n(CC(=O)NC(Cc2ccccc2)C(=O)c2nc3ncccc3o2)c1=O (centres unmarked) [Example 72, 2-[5-amino-6-oxo-2-(3-pyridyl)-1,6-dihydro-1-pyrimidinyl]-N-[1-[(oxazolo[4,5-b]pyridin-2-yl)carbonyl]-2-phenylethyl]acetamide] | 7.13
COC(=O)c1ccc2oc(C(=O)C(Cc3ccccc3)NC(=O)Cn3c(-c4ccncc4)ncc(NC(=O)OCc4ccccc4)c3=O)nc2c1 (centres unmarked) [Example 73, 2-[5-benzyloxycarbonylamino-6-oxo-2-(4-pyridyl)-1,6-dihydro-1-pyrimidinyl]-N-[1-[[5-(methoxycarbonyl)benzoxazol-2-yl]carbonyl]-2-phenylethyl]acetamide] | 7.23
COC(=O)c1ccc2oc(C(=O)C(Cc3ccccc3)NC(=O)Cn3c(-c4cccc([N+](=O)[O-])c4)ncc(N)c3=O)nc2c1 (centres unmarked) [Example 80, 2-[5-amino-2-(3-nitrophenyl)-6-oxo-1,6-dihydro-1-pyrimidinyl]-N-[1-[[5-(methoxycarbonyl)benzoxazol-2-yl]carbonyl]-2-phenylethyl]acetamide] | 7.38
COC(=O)c1ccc2oc(C(=O)C(Cc3ccccc3)NC(=O)Cn3c(-c4cccc(OC)c4)ncc(N)c3=O)nc2c1 (centres unmarked) [Example 88, 2-[5-amino-2-(3-methoxyphenyl)-6-oxo-1,6-dihydro-1-pyrimidinyl]-N-[1-[[5-(methoxycarbonyl)benzoxazol-2-yl]carbonyl]-2-phenylethyl]acetamide] | 8.30
COC(=O)c1ccc2oc(C(=O)C(Cc3ccccc3)NC(=O)Cn3c(-c4cccc(N)c4)ncc(N)c3=O)nc2c1 (centres unmarked) [Example 93, 2-[5-amino-2-(3-aminophenyl)-6-oxo-1,6-dihydro-1-pyrimidinyl]-N-[1-[[5-(methoxycarbonyl)benzoxazol-2-yl]carbonyl]-2-phenylethyl]acetamide] | 8.22
CC(=O)Nc1cnc(-c2ccc(F)cc2)n(CC(=O)NC(Cc2ccccc2)C(=O)c2nc3ccccc3o2)c1=O (centres unmarked) [Example 94, 2-[5-acetamide-2-(4-fluorophenyl)-6-oxo-1,6-dihydro-1-pyrimidinyl]-N-[1-[(benzoxazol-2-yl)carbonyl]-2-phenylethyl]acetamide] | 7.24
